The values that follow come from BindingDB's records for doi:10.1016/j.bmcl.2006.04.082 (Pharmacopeia Drug Discovery, 2006).

This assay addresses T1, C-X-C chemokine receptor type 2 (Homo sapiens, UniProt P25025).
T1 sequence (P25025 whole entry): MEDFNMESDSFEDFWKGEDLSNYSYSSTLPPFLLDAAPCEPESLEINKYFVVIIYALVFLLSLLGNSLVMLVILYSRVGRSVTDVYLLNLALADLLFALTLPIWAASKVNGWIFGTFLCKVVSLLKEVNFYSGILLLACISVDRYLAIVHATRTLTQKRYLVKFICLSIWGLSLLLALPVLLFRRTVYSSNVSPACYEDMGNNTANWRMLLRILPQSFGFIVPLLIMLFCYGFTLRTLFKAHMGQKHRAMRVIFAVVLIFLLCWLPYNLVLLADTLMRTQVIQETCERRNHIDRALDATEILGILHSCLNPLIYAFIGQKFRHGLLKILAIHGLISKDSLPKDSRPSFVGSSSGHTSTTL
Briefly: Displacement of [125I]IL8 from human CXCR2 expressed in CHO cells.

`CC(C)Nc1c(Nc2cccc(C(=O)N(C)C)c2O)c(=O)c1=O` [2-hydroxy-3-(2-(isopropylamino)-3,4-dioxocyclobut-1-enylamino)-N,N-dimethylbenzamide] came in with an IC50 of 10 nM.

Compound `CN(C)C(=O)c1cccc(Nc2c(NC3CCCCC3)c(=O)c2=O)c1O` [3-(2-(cyclohexylamino)-3,4-dioxocyclobut-1-enylamino)-2-hydroxy-N,N-dimethylbenzamide] displayed a concentration for half-maximal inhibition (IC50) of 10 nM.
